PubChem BioAssay AID1963974 (Molecular Pharmacology Branch, DTP, NCI, 2024)
Values joined by “and” are separate entries in the source; they are usually repeats but may differ in a detail not shown here. Equal values may be shown once.

Test system: 648629-189-R-J1-PDC spheroids with HUVEC/MSC, viability
Test: Anticancer human tumor 648629-189-R-J1-PDC patient-derived bladder carcinoma cell line growth inhibition [PI3K]
Conditions: for viability, T/C: stronger effect = lower value
Method in brief: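 Complex 3D spheroids (cancer cells + endothelial HUVEC + mesenchymal stem cells); drug pairs of targeted agent x inavolisib/alpelisib/duvelisib/copanlisib; half-log series from ~Cmax, max 10 microM if Cmax unknown; endpoint viability.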

[1] = curve of first compound, second compound 0.0316 µM
[2] = curve of first compound, second compound 0.1 µM
[3] = curve of first compound, second compound 0.316 µM
[4] = curve of first compound, second compound 1 µM
[5] = curve of first compound, second compound 3.16 µM
[6] = curve of first compound, second compound 10 µM
[7] = second compound 0.0316 µM, first compound 0.0316 µM
[8] = second compound 0.0316 µM, first compound 0.1 µM
[9] = second compound 0.0316 µM, first compound 0.316 µM
[10] = second compound 0.0316 µM, first compound 1 µM
[11] = second compound 0.0316 µM, first compound 3.16 µM
[12] = second compound 0.0316 µM, first compound 10 µM
[13] = second compound 0.1 µM, first compound 0.0316 µM
[14] = second compound 0.1 µM, first compound 0.1 µM
[15] = second compound 0.1 µM, first compound 0.316 µM
[16] = second compound 0.1 µM, first compound 1 µM
[17] = second compound 0.1 µM, first compound 3.16 µM
[18] = second compound 0.1 µM, first compound 10 µM
[19] = second compound 0.316 µM, first compound 0.0316 µM
[20] = second compound 0.316 µM, first compound 0.1 µM
[21] = second compound 0.316 µM, first compound 0.316 µM
[22] = second compound 0.316 µM, first compound 1 µM
[23] = second compound 0.316 µM, first compound 3.16 µM
[24] = second compound 0.316 µM, first compound 10 µM
[25] = second compound 1 µM, first compound 0.0316 µM
[26] = second compound 1 µM, first compound 0.1 µM
[27] = second compound 1 µM, first compound 0.316 µM
[28] = second compound 1 µM, first compound 1 µM
[29] = second compound 1 µM, first compound 3.16 µM
[30] = second compound 1 µM, first compound 10 µM
[31] = second compound 3.16 µM, first compound 0.0316 µM
[32] = second compound 3.16 µM, first compound 0.1 µM
[33] = second compound 10 µM, first compound 0.0316 µM
[34] = second compound 10 µM, first compound 0.1 µM
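Further: spheroids exposed to agents for seven days before reading.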
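Wherever viability, T/C is given: percent of vehicle control luminescence where 100% = DMSO treated spheroids.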

CC1(C)CCC(CN2CCN(c3ccc(C(=O)NS(=O)(=O)c4ccc(NCC5CCOCC5)c([N+](=O)[O-])c4)c(Oc4cnc5[nH]ccc5c4)c3)CC2)=C(c2ccc(Cl)cc2)C1 + Cc1nc(NC(=O)N2CCCC2C(N)=O)sc1-c1ccnc(C(C)(C)C(F)(F)F)c1
IC50 [1]: 4.85 µM | IC50 [2]: 4.71 µM | IC50 [3]: 4.72 µM | IC50 [4]: 4.73 µM | IC50 [5]: 3.71 µM | IC50 [6]: < 0.0316 µM | viability, T/C [7]: 122% | viability, T/C [8]: 100% | viability, T/C [9]: 102% | viability, T/C [10]: 91.6% | viability, T/C [11]: 78.4% | viability, T/C [12]: 9.8% | viability, T/C [13]: 106% | viability, T/C [14]: 102% | viability, T/C [15]: 106% | viability, T/C [16]: 94.9% | viability, T/C [17]: 71.6% | viability, T/C [18]: 9.33% | viability, T/C [19]: 98.3% | viability, T/C [20]: 85.1% | viability, T/C [21]: 92.2% | viability, T/C [22]: 84.4% | viability, T/C [23]: 72.5% | viability, T/C [24]: 9.78% | viability, T/C [25]: 83.8% | viability, T/C [26]: 78.1% | viability, T/C [27]: 74.3% | viability, T/C [28]: 78.5% | viability, T/C [29]: 73.2% | viability, T/C [30]: 6.85% | viability, T/C [31]: 61.2% | viability, T/C [32]: 57% | viability, T/C (second compound 3.16 µM, first compound 0.316 µM): 58.3% | viability, T/C (second compound 3.16 µM, first compound 1 µM): 57.9% | viability, T/C (second compound 3.16 µM, first compound 3.16 µM): 56% | viability, T/C (second compound 3.16 µM, first compound 10 µM): 12.8% | viability, T/C [33]: 43.5% | viability, T/C [34]: 37.1% | viability, T/C (second compound 10 µM, first compound 0.316 µM): 40.1% | viability, T/C (second compound 10 µM, first compound 1 µM): 38.3% | viability, T/C (second compound 10 µM, first compound 3.16 µM): 43.1% | viability, T/C (second compound 10 µM, first compound 10 µM): 7.34%

Cn1ncnc1[C@H]1c2n[nH]c(=O)c3cc(F)cc(c23)N[C@@H]1c1ccc(F)cc1 + CC(Nc1ncnc2nc[nH]c12)c1cc2cccc(Cl)c2c(=O)n1-c1ccccc1
IC50 [1]: > 0.1 µM | IC50 [2]: > 0.1 µM | IC50 [3]: > 0.1 µM | IC50 [4]: > 0.1 µM | IC50 [5]: > 0.1 µM | IC50 [6]: > 0.1 µM | viability, T/C (second compound 0.0316 µM, first compound 0.000316 µM): 99.8% | viability, T/C (second compound 0.0316 µM, first compound 0.001 µM): 100% | viability, T/C (second compound 0.0316 µM, first compound 0.00316 µM): 99.8% | viability, T/C (second compound 0.0316 µM, first compound 0.01 µM): 88.1% | viability, T/C [7]: 67.2% | viability, T/C [8]: 71% | viability, T/C (second compound 0.1 µM, first compound 0.000316 µM): 97.8% | viability, T/C (second compound 0.1 µM, first compound 0.001 µM): 101% | viability, T/C (second compound 0.1 µM, first compound 0.00316 µM): 98.2% | viability, T/C (second compound 0.1 µM, first compound 0.01 µM): 81.2% | viability, T/C [13]: 93.2% | viability, T/C [14]: 66.7% | viability, T/C (second compound 0.316 µM, first compound 0.000316 µM): 94.2% | viability, T/C (second compound 0.316 µM, first compound 0.001 µM): 98.2% | viability, T/C (second compound 0.316 µM, first compound 0.00316 µM): 91.9% | viability, T/C (second compound 0.316 µM, first compound 0.01 µM): 92% | viability, T/C [19]: 85.4% | viability, T/C [20]: 59.1% | viability, T/C (second compound 1 µM, first compound 0.000316 µM): 111% | viability, T/C (second compound 1 µM, first compound 0.001 µM): 100% | viability, T/C (second compound 1 µM, first compound 0.00316 µM): 97.8% | viability, T/C (second compound 1 µM, first compound 0.01 µM): 82.3% | viability, T/C [25]: 74.4% | viability, T/C [26]: 65.1% | viability, T/C (second compound 3.16 µM, first compound 0.000316 µM): 96.4% | viability, T/C (second compound 3.16 µM, first compound 0.001 µM): 89.6% | viability, T/C (second compound 3.16 µM, first compound 0.00316 µM): 88.7% | viability, T/C (second compound 3.16 µM, first compound 0.01 µM): 86.5% | viability, T/C [31]: 81.6% | viability, T/C [32]: 58.9% | viability, T/C (second compound 10 µM, first compound 0.000316 µM): 90.4% | viability, T/C (second compound 10 µM, first compound 0.001 µM): 86.7% | viability, T/C (second compound 10 µM, first compound 0.00316 µM): 80.7% | viability, T/C (second compound 10 µM, first compound 0.01 µM): 80.7% | viability, T/C [33]: 71.1% | viability, T/C [34]: 55.9%

CC(C)NCC(C(=O)N1CCN(c2ncnc3c2C(C)CC3O)CC1)c1ccc(Cl)cc1 (stereo not given) + CC(Nc1ccc2c(c1)OCCn1cc(N3C(=O)OCC3C(F)F)nc1-2)C(N)=O
IC50 (curve of first compound, second compound 0.00316 µM): 1.28 µM | IC50 (curve of first compound, second compound 0.01 µM): 1.01 µM | IC50 [1]: 0.87 µM | IC50 [2]: 1.15 µM | IC50 [3]: 0.645 µM | IC50 [4]: 0.437 µM | viability, T/C (second compound 0.00316 µM, first compound 0.0316 µM): 110% | viability, T/C (second compound 0.00316 µM, first compound 0.1 µM): 97.4% | viability, T/C (second compound 0.00316 µM, first compound 0.316 µM): 91.8% | viability, T/C (second compound 0.00316 µM, first compound 1 µM): 54.9% | viability, T/C (second compound 0.00316 µM, first compound 3.16 µM): 27.3% | viability, T/C (second compound 0.00316 µM, first compound 10 µM): 13.5% | viability, T/C (second compound 0.01 µM, first compound 0.0316 µM): 95.5% | viability, T/C (second compound 0.01 µM, first compound 0.1 µM): 105% | viability, T/C (second compound 0.01 µM, first compound 0.316 µM): 81% | viability, T/C (second compound 0.01 µM, first compound 1 µM): 50.2% | viability, T/C (second compound 0.01 µM, first compound 3.16 µM): 26.8% | viability, T/C (second compound 0.01 µM, first compound 10 µM): 16.2% | viability, T/C [7]: 90.1% | viability, T/C [8]: 99.3% | viability, T/C [9]: 77.7% | viability, T/C [10]: 44.5% | viability, T/C [11]: 27.1% | viability, T/C [12]: 14% | viability, T/C [13]: 82.7% | viability, T/C [14]: 80.7% | viability, T/C [15]: 78.2% | viability, T/C [16]: 52.4% | viability, T/C [17]: 25.3% | viability, T/C [18]: 13.6% | viability, T/C [19]: 83.1% | viability, T/C [20]: 75.6% | viability, T/C [21]: 63.8% | viability, T/C [22]: 41.3% | viability, T/C [23]: 24.6% | viability, T/C [24]: 14.2% | viability, T/C [25]: 65.2% | viability, T/C [26]: 67.8% | viability, T/C [27]: 56.6% | viability, T/C [28]: 32.2% | viability, T/C [29]: 19% | viability, T/C [30]: 12.6%

CCCS(=O)(=O)Nc1ccc(F)c(C(=O)c2c[nH]c3ncc(-c4ccc(Cl)cc4)cc23)c1F
viability, T/C (compound 0.0316 µM): 103% (2×) and 105% and 102% | viability, T/C (compound 0.1 µM): 108% [middle of 4 runs] | viability, T/C (compound 0.316 µM): 112% [middle of 4 runs] | viability, T/C (compound 1 µM): 110% [middle of 4 runs] | viability, T/C (compound 3.16 µM): 91.3% [middle of 4 runs] | viability, T/C (compound 10 µM): 0.48% [middle of 4 runs] | IC50 (curve of compound): 5.33 µM [middle of 4 runs]

CC1(C)CCC(Nc2ncc(C(F)(F)F)c(-c3c[nH]c4c(P(C)(C)=O)c(C#N)ccc34)n2)CN1 (stereo not given)
viability, T/C (compound 0.0316 µM): 30.3% [middle of 4 runs] | viability, T/C (compound 0.1 µM): 27.1% [middle of 4 runs] | viability, T/C (compound 0.316 µM): 32.2% [middle of 4 runs] | viability, T/C (compound 1 µM): 36.1% [middle of 4 runs] | viability, T/C (compound 3.16 µM): 39.7% (2×) and 40.8% and 38.2% | viability, T/C (compound 10 µM): 5.52% [middle of 4 runs] | IC50 (curve of compound): < 0.0316 µM
